SMILES strings stand for the structures. *1 amine or outer side, *2 acyl side, *3 side chain or, on linkers, in order; H or OH if unused. Where a SMILES comes first, the peptide text is derived from it. Bridges are numbered along the chain shown (N, C = ends). [ ]: non-standard residue; d: D form. The star is where a group is joined. Phe(4-COOH) = N[C@@H](Cc1ccc(C(=O)O)cc1)C(=O)O; Bip = N[C@@H](Cc1ccc(-c2ccccc2)cc1)C(=O)O; Phe(3-Me) = Cc1cccc(C[C@H](N)C(=O)O)c1; γGlu = O=C(O)[C@H](CCC(=O)[*:2])N[*:1]; 4Pal = N[C@@H](Cc1ccncc1)C(=O)O; Cha = N[C@@H](CC1CCCCC1)C(=O)O; Carboxymethyl = O=C(O)C*; Orn = NCCC[C@H](N)C(=O)O; Pra = C#CC[C@H](N)C(=O)O; Dab = NCC[C@H](N)C(=O)O; Nva = CCC[C@H](N)C(=O)O; Dap = NC[C@H](N)C(=O)O; Propargyl = C#CC*

This experiment deals with T1, human PD-1 / PD-L1-Ig binding on Jurkat cell line over-expressing human PD-1 (Jurkat-PD-1) (Homo sapiens, UniProt Q15116).
T1 construct: expressed in transfected cells; host or cells: Jurkat
T1 sequence (Q15116 25-288): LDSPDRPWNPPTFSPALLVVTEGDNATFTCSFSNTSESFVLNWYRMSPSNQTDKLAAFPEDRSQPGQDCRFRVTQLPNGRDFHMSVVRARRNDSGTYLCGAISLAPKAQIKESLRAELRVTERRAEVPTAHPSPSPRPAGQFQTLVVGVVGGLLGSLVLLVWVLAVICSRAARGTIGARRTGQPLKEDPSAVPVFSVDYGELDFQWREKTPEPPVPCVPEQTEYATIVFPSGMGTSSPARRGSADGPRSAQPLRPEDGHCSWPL
Briefly: Jurkat-PD-1 Cell Binding High-Content Screening Assay (CBA). The experiment is classed as cell-based. The settings on record: Jurkat-PD-1 cells, PE-labeled PD-L1-Ig 20 nM final; read-out: Jurkat HPD1_PDL1 IC50. An outline of the steps: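 Compounds were preincubated with Jurkat-hPD-1 cells in DMEM plus 10% fetal calf serum for 2 h at 37° C. Phycoerythrin-labeled PD-L1-Ig (20 nM final) was then added for 1 hour. Cells were fixed in 4% paraformaldehyde with Hoechst 33342, and bound fluorescence was quantified by high-content imaging.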
On to `C#CC[C@H](NC(=O)CC[C@H](NC(=O)[C@H](C)NC(=O)[C@@H]1CSCC(=O)N[C@@H](CN)C(=O)N[C@@H](Cc2ccc(OCC(=O)O)cc2)C(=O)N[C@@H](CC(=O)O)C(=O)N[C@@H](Cc2cccc(C)c2)C(=O)N[C@@H](Cc2ccc(OCC(=O)O)cc2)C(=O)N[C@@H](Cc2ccc(-c3ccccc3)cc2)C(=O)N[C@@H](Cc2ccc(OCC(=O)O)cc2)C(=O)N[C@@H](CCCN)C(=O)N[C@H](CC(C)C)C(=O)N[C@@H](CCN)C(=O)N[C@@H](CC2CCCCC2)C(=O)N[C@@H](C(C)C)C(=O)N[C@@H]([C@@H](C)O)C(=O)N1)C(=O)O)C(N)=O` [Compound 1807] ({CH2CO}-[Dap]Y(Carboxymethyl)D[Phe(3-Me)]Y(Carboxymethyl)[Bip]Y(Carboxymethyl)[Orn][dL][Dab][Cha]VTCA[γGlu][Pra]-NH2; thioether N-14), for which the IC50 was 4.6 nM.

Consider `C#CCOc1ccc(C[C@@H]2NC(=O)[C@H](Cc3cccc(C)c3)NC(=O)[C@H](CC(=O)O)NC(=O)[C@H](Cc3ccc(OCC(=O)O)cc3)NC(=O)[C@H](CN)NC(=O)CSC[C@@H](C(=O)N[C@@H](CCN)C(N)=O)NC(=O)[C@H](CCC(=O)O)NC(=O)[C@H](C(C)C)NC(=O)[C@H](CC3CCCCC3)NC(=O)[C@H](CCN)NC(=O)[C@@H](CC(C)C)NC(=O)[C@H](CCCN)NC(=O)[C@H](Cc3ccc(OCC(=O)O)cc3)NC(=O)[C@H](Cc3ccc(-c4ccccc4)cc3)NC2=O)cc1` [Compound 1812] ({CH2CO}-[Dap]Y(Carboxymethyl)D[Phe(3-Me)]Y(Propargyl)[Bip]Y(Carboxymethyl)[Orn][dL][Dab][Cha]VEC[Dab]-NH2; thioether N-14), for which the half-inhibitory concentration (IC50) is 3.2 nM.

For `C#CCOc1ccc(C[C@@H]2NC(=O)[C@H](C(C)C)NC(=O)[C@H](CC3CCCCC3)NC(=O)[C@H](CCN)NC(=O)[C@@H](CC(C)C)NC(=O)[C@H](CCCN)NC(=O)[C@H](Cc3ccc(OCC(=O)O)cc3)NC(=O)[C@H](Cc3ccc(-c4ccccc4)cc3)NC(=O)[C@H](Cc3ccc(OCC(=O)O)cc3)NC(=O)[C@H](Cc3cccc(C)c3)NC(=O)[C@H](CC(=O)O)NC(=O)[C@H](Cc3ccc(OCC(=O)O)cc3)NC(=O)[C@H](Cc3cnc[nH]3)NC(=O)CSC[C@@H](C(=O)N[C@@H](CCN)C(N)=O)NC2=O)cc1` [Compound 1813] ({CH2CO}-HY(Carboxymethyl)D[Phe(3-Me)]Y(Carboxymethyl)[Bip]Y(Carboxymethyl)[Orn][dL][Dab][Cha]VY(Propargyl)C[Dab]-NH2; thioether N-14), the IC50 was 0.7 nM.

As for `C#CCOc1ccc(C[C@@H]2NC(=O)[C@H](C(C)C)NC(=O)[C@H](CC3CCCCC3)NC(=O)[C@H](CCN)NC(=O)[C@@H](CC(C)C)NC(=O)[C@H](CCCN)NC(=O)[C@H](Cc3ccc(OCC(=O)O)cc3)NC(=O)[C@H](Cc3ccc(-c4ccccc4)cc3)NC(=O)[C@H](Cc3ccc(OCC(=O)O)cc3)NC(=O)[C@H](Cc3cccc(C)c3)NC(=O)[C@H](CC(=O)O)NC(=O)[C@H](Cc3ccc(OCC(=O)O)cc3)NC(=O)[C@H](CCN)NC(=O)CSC[C@@H](C(=O)N[C@@H](CCN)C(N)=O)NC2=O)cc1` [Compound 1814] ({CH2CO}-[Dab]Y(Carboxymethyl)D[Phe(3-Me)]Y(Carboxymethyl)[Bip]Y(Carboxymethyl)[Orn][dL][Dab][Cha]VY(Propargyl)C[Dab]-NH2; thioether N-14), the IC50 came out at 23 nM.

Consider `C#CCOc1ccc(C[C@@H]2NC(=O)[C@H](CCCNC(=N)N)NC(=O)CSC[C@@H](C(=O)N[C@@H](CCN)C(N)=O)NC(=O)[C@H](CCC(=O)O)NC(=O)[C@H](C(C)C)NC(=O)[C@H](CC3CCCCC3)NC(=O)[C@H](CCN)NC(=O)[C@@H](CC(C)C)NC(=O)[C@H](CCCN)NC(=O)[C@H](Cc3ccc(OCC(=O)O)cc3)NC(=O)[C@H](Cc3ccc(-c4ccccc4)cc3)NC(=O)[C@H](Cc3ccc(OCC(=O)O)cc3)NC(=O)[C@H](Cc3cccc(C)c3)NC(=O)[C@H](CC(=O)O)NC2=O)cc1` [Compound 1815] ({CH2CO}-RY(Propargyl)D[Phe(3-Me)]Y(Carboxymethyl)[Bip]Y(Carboxymethyl)[Orn][dL][Dab][Cha]VEC[Dab]-NH2; thioether N-14), for which the 50% inhibitory concentration (IC50) came out at 22.2 nM.

Consider `C#CCOc1ccc(C[C@@H]2NC(=O)[C@H](C(C)C)NC(=O)[C@H](CC3CCCCC3)NC(=O)[C@H](CCN)NC(=O)[C@@H](CC(C)C)NC(=O)[C@H](CCCN)NC(=O)[C@H](Cc3ccc(OCC(=O)O)cc3)NC(=O)[C@H](Cc3ccc(-c4ccccc4)cc3)NC(=O)[C@H](Cc3ccc(OCC(=O)O)cc3)NC(=O)[C@H](Cc3cccc(C)c3)NC(=O)[C@H](CC(=O)O)NC(=O)[C@H](Cc3ccc(OCC(=O)O)cc3)NC(=O)[C@H](CN)NC(=O)CSC[C@@H](C(=O)N[C@@H](CCN)C(N)=O)NC2=O)cc1` [Compound 1816] ({CH2CO}-[Dap]Y(Carboxymethyl)D[Phe(3-Me)]Y(Carboxymethyl)[Bip]Y(Carboxymethyl)[Orn][dL][Dab][Cha]VY(Propargyl)C[Dab]-NH2; thioether N-14), for which the IC50 is 11.9 nM.

Regarding `C#CCOc1ccc(C[C@@H]2NC(=O)CSC[C@@H](C(=O)N[C@@H](CCN)C(N)=O)NC(=O)[C@H](CCC(=O)O)NC(=O)[C@H](C(C)C)NC(=O)[C@H](CC3CCCCC3)NC(=O)[C@H](CCN)NC(=O)[C@@H](CC(C)C)NC(=O)[C@H](CCCN)NC(=O)[C@H](Cc3ccc(OCC(=O)O)cc3)NC(=O)[C@H](Cc3ccc(-c4ccccc4)cc3)NC(=O)[C@H](Cc3ccc(OCC(=O)O)cc3)NC(=O)[C@H](Cc3cccc(C)c3)NC(=O)[C@H](CC(=O)O)NC(=O)[C@H](Cc3ccc(OCC(=O)O)cc3)NC2=O)cc1` [Compound 1817] ({CH2CO}-Y(Propargyl)Y(Carboxymethyl)D[Phe(3-Me)]Y(Carboxymethyl)[Bip]Y(Carboxymethyl)[Orn][dL][Dab][Cha]VEC[Dab]-NH2; thioether N-14), the IC50 was 3.6 nM.

On to `C#CCOc1ccc(C[C@@H]2NC(=O)[C@H](Cc3cccc(C)c3)NC(=O)[C@H](CC(=O)O)NC(=O)[C@H](Cc3ccc(OCC(=O)O)cc3)NC(=O)[C@H](CCCNC(=N)N)NC(=O)CSC[C@@H](C(=O)N[C@@H](CCN)C(N)=O)NC(=O)[C@H](CCC(=O)O)NC(=O)[C@H](C(C)C)NC(=O)[C@H](CC3CCCCC3)NC(=O)[C@H](CCN)NC(=O)[C@@H](CC(C)C)NC(=O)[C@H](CCCN)NC(=O)[C@H](Cc3ccc(OCC(=O)O)cc3)NC(=O)[C@H](Cc3ccc(-c4ccccc4)cc3)NC2=O)cc1` [Compound 1818] ({CH2CO}-RY(Carboxymethyl)D[Phe(3-Me)]Y(Propargyl)[Bip]Y(Carboxymethyl)[Orn][dL][Dab][Cha]VEC[Dab]-NH2; thioether N-14), for which the IC50 came out at 2.3 nM.

In the case of `C#CCOc1ccc(C[C@@H]2NC(=O)[C@H](CN)NC(=O)CSC[C@@H](C(=O)N[C@@H](CCN)C(N)=O)NC(=O)[C@H](CCC(=O)O)NC(=O)[C@H](C(C)C)NC(=O)[C@H](CC3CCCCC3)NC(=O)[C@H](CCN)NC(=O)[C@@H](CC(C)C)NC(=O)[C@H](CCCN)NC(=O)[C@H](Cc3ccc(OCC(=O)O)cc3)NC(=O)[C@H](Cc3ccc(-c4ccccc4)cc3)NC(=O)[C@H](Cc3ccc(OCC(=O)O)cc3)NC(=O)[C@H](Cc3cccc(C)c3)NC(=O)[C@H](CC(=O)O)NC2=O)cc1` [Compound 1819] ({CH2CO}-[Dap]Y(Propargyl)D[Phe(3-Me)]Y(Carboxymethyl)[Bip]Y(Carboxymethyl)[Orn][dL][Dab][Cha]VEC[Dab]-NH2; thioether N-14), the IC50 turned out to be 3.7 nM.

`C#CCOc1ccc(C[C@@H]2NC(=O)[C@H](CCN)NC(=O)CSC[C@@H](C(=O)N[C@@H](CCN)C(N)=O)NC(=O)[C@H](CCC(=O)O)NC(=O)[C@H](C(C)C)NC(=O)[C@H](CC3CCCCC3)NC(=O)[C@H](CCN)NC(=O)[C@@H](CC(C)C)NC(=O)[C@H](CCCN)NC(=O)[C@H](Cc3ccc(OCC(=O)O)cc3)NC(=O)[C@H](Cc3ccc(-c4ccccc4)cc3)NC(=O)[C@H](Cc3ccc(OCC(=O)O)cc3)NC(=O)[C@H](Cc3cccc(C)c3)NC(=O)[C@H](CC(=O)O)NC2=O)cc1` [Compound 1820] ({CH2CO}-[Dab]Y(Propargyl)D[Phe(3-Me)]Y(Carboxymethyl)[Bip]Y(Carboxymethyl)[Orn][dL][Dab][Cha]VEC[Dab]-NH2; thioether N-14): the IC50 stood at 17.2 nM.

On to `C#CCOc1ccc(C[C@@H]2NC(=O)[C@H](C(C)C)NC(=O)[C@H](CC3CCCCC3)NC(=O)[C@H](CCN)NC(=O)[C@@H](CC(C)C)NC(=O)[C@H](CCCN)NC(=O)[C@H](Cc3ccc(OCC(=O)O)cc3)NC(=O)[C@H](Cc3ccc(-c4ccccc4)cc3)NC(=O)[C@H](Cc3ccc(OCC(=O)O)cc3)NC(=O)[C@H](Cc3cccc(C)c3)NC(=O)[C@H](CC(=O)O)NC(=O)[C@H](Cc3ccc(OCC(=O)O)cc3)NC(=O)[C@H](Cc3ccncc3)NC(=O)CSC[C@@H](C(=O)N[C@@H](CCN)C(N)=O)NC2=O)cc1` [Compound 1821] ({CH2CO}-[4Pal]Y(Carboxymethyl)D[Phe(3-Me)]Y(Carboxymethyl)[Bip]Y(Carboxymethyl)[Orn][dL][Dab][Cha]VY(Propargyl)C[Dab]-NH2; thioether N-14), for which the IC50 is 191 nM.

For `C#CC[C@H](NC(=O)[C@H](CCN)NC(=O)[C@@H]1CSCC(=O)N[C@@H](CCC)C(=O)N[C@@H](Cc2ccc(OCC(=O)O)cc2)C(=O)N[C@@H](CC(=O)O)C(=O)N[C@@H](Cc2cccc(C)c2)C(=O)N[C@@H](Cc2ccc(C(=O)O)cc2)C(=O)N[C@@H](Cc2ccc(-c3ccccc3)cc2)C(=O)N[C@@H](Cc2ccc(C(=O)O)cc2)C(=O)N[C@@H](CCCN)C(=O)N[C@H](CC(C)C)C(=O)N[C@@H](CCN)C(=O)N[C@@H](CC2CCCCC2)C(=O)N[C@@H](C(C)C)C(=O)N[C@@H](CCC(=O)O)C(=O)N1)C(=O)O` [Compound 1822] ({CH2CO}-[Nva]Y(Carboxymethyl)D[Phe(3-Me)][Phe(4-COOH)][Bip][Phe(4-COOH)][Orn][dL][Dab][Cha]VEC[Dab][Pra]-OH; thioether N-14), the IC50 was 5.8 nM.

The IC50 is the point on the concentration scale where inhibition reaches its midpoint.

Source of the values: patent US20250163104A1, “MACROCYCLIC IMMUNOMODULATORS” (priority 2021, published 2025).
